Assay results published in patent US8889398B2, “Composition for inactivating an enveloped virus” (Viroblock SA, priority 2006, dated 2014).
“Also recorded” adds a separate entry of the source.

How the values were obtained:
cellular integrity = details: 50-100 mM, range of concentrations used in most in vitro experiments; cited from earlier work
[1] = system: rSeV-Luc (recombinant Sendai virus); assay: Inactivation assay with or without cyclodextrin, rSeV-Luc, luciferase activity in MK2 cells; assay type: cell-based
Experimental: MK2 (monkey) cells were grown at 37° C. in DMEM containing 5% of bovine serum albumin (BSA) until they reached 70% of confluence.
A recombinant Sendai virus was used, rSeV-Luc, which encodes the Photinus pyralis luciferase gene.
The nPLV preparations were diluted in PBS to the indicated concentrations. The diluted nPLVs were then mixed with the viruses, either alone (no cyclodextrin) or in combination with 0.5 mM (final concentration) of cyclodextrin, in a volume of 100 μl. The virus-nPLV mixtures were incubated at room temperature for 20 minutes with shaking. About 10^5 viral particles were used.
Following incubation, the mixtures were diluted to […] in DMEM without BSA and directly added onto cells. Infections were performed at 33° C. for one hour, and then infectious mixes were removed. Cells were washed once with DMEM without BSA, 10 ml of DMEM with 1% BSA were added and incubation was further performed at 37° C. for 36 hours. Experiment was done in duplicates.
MK2 cells were lysed and luciferase activity was determined using the Promega's Luciferase Assay System. Measurements were done with TD-20/20 luminometer (Turner Designs).

OC[C@H]1O[C@@H]2O[C@H]3[C@H](O)[C@@H](O)[C@@H](O[C@H]4[C@H](O)[C@@H](O)[C@@H](O[C@H]5[C@H](O)[C@@H](O)[C@@H](O[C@H]6[C@H](O)[C@@H](O)[C@@H](O[C@H]7[C@H](O)[C@@H](O)[C@@H](O[C@H]8[C@H](O)[C@@H](O)[C@@H](O[C@H]1[C@H](O)[C@H]2O)O[C@@H]8CO)O[C@@H]7CO)O[C@@H]6CO)O[C@@H]5CO)O[C@@H]4CO)O[C@@H]3CO [β-cyclodextrin]
effect on cellular integrity (cellular integrity): detrimental for cellular integrity and can induce cell death
effect of β-cyclodextrin on the viral inactivation by nPLVs ([1]; 0.5 mM β-cyclodextrin with nPLVs composed of PCE with 0.1% mol of oleic acid (OA), nPLVs 0.02%, 0.05% and 0.1%, FIG. 2A): greatly enhances the viral inactivation; also recorded: strong synergistic effect
concentration at which a direct effect of β-cyclodextrin alone on the viral particles is observed ([1]; in absence of nPLVs, FIG. 2B): higher than 5 mM
